Results taken from ChEMBL document CHEMBL1151043, “The synthesis and antibacterial activity of 2-para-quarternary ammoniomethylphenyl-carbapenems” (1993).
≈ marks a conversion by molar mass, not a printed value.

Experiments:
Proteus [1] = assay: In vitro antibacterial activity against Proteus relative to thienamycin; format: functional, Proteus sp.
Serratia [2] = assay: In vitro antibacterial activity against Serratia relative to thienamycin; format: functional
Staphylococcus aureus [3] = assay: In vitro antibacterial activity against Staphylococcus aureus (4) relative to Thienamycin (1); format: functional
Klebsiella [4] = assay: In vitro antibacterial activity against Klebsiella relative to thienamycin; format: functional
Pseudomonas [5] = assay: In vitro antibacterial activity against Pseudomonas relative to thienamycin; format: functional
Enterococcus [6] = assay: In vitro antibacterial activity against Enterococcus relative to thienamycin; format: functional
Enterobacter [7] = assay: In vitro antibacterial activity against Enterobacter relative to thienamycin; format: functional
Escherichia coli [8] = assay: In vitro antibacterial activity against Escherichia coli relative to thienamycin; format: functional
[9] = molecular target: T1, Dipeptidase 1 (Sus scrofa) (UniProt P22412); assay: Susceptibility of compound towards porcine Dehydropeptidase-1 relative to imipenem as […] was calculated
T1 sequence (whole entry): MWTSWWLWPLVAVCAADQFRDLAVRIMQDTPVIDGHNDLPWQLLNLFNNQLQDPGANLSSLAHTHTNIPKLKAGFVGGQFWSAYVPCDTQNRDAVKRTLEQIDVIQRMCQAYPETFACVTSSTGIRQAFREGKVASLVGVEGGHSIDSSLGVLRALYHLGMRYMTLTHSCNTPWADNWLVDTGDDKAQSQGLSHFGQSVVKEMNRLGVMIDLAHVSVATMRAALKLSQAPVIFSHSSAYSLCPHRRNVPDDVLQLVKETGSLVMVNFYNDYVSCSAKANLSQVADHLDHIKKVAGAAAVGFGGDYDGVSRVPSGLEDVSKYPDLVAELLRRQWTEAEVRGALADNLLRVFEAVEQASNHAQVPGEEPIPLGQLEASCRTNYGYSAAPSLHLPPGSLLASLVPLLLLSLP

Proteus [10] = assay: In vitro antibacterial activity against Proteus relative to Thienamycinv; format: functional, Proteus sp.
Staphylococcus aureus [11] = assay: In vitro antibacterial activity against Staphylococcus aureus relative to thienamycin; format: functional
Proteus [12] = assay: Minimum inhibitory concentration required for the antibacterial activity against Proteus; format: functional, Proteus sp.
Klebsiella [13] = assay: Minimum inhibitory concentration required for the antibacterial activity against Klebsiella; format: functional
Serratia [14] = assay: Minimum inhibitory concentration required for the antibacterial activity against Serratia; format: functional
Pseudomonas [15] = assay: Minimum inhibitory concentration required for the antibacterial activity against Pseudomonas relative to Thienamycin (1); format: functional
Enterobacter [16] = assay: Minimum inhibitory concentration required for the antibacterial activity against Enterobacter; format: functional
Enterococcus [17] = assay: Minimum inhibitory concentration required for the antibacterial activity against Enterococcus; format: functional
Staphylococcus aureus [18] = assay: Minimum inhibitory concentration required for the antibacterial activity against Staphylococcus aureus; format: functional
Escherichia coli [19] = assay: Minimum inhibitory concentration required for the antibacterial activity against Escherichia coli; format: functional

Row | Susceptibility [9] | MIC (Proteus [12]) | MIC (Klebsiella [13]) | MIC (Serratia [14]) | MIC (Pseudomonas [15]) | MIC (Enterobacter [16]) | MIC (Enterococcus [17]) | MIC (Staphylococcus aureus [18]) | MIC (Escherichia coli [19]) | Structure (SMILES) | Relative potency (Proteus [1]) | Relative potency (Serratia [2]) | Relative potency (Staphylococcus aureus [3]) | Relative potency (Klebsiella [4]) | Relative potency (Pseudomonas [5]) | Relative potency (Enterococcus [6]) | Relative potency (Enterobacter [7]) | Relative potency (Escherichia coli [8]) | Relative potency (Proteus [10]) | Relative potency (Staphylococcus aureus [11])
1 | 0.06 | – | – | – | – | – | – | – | – | CSc1ccc[n+](Cc2ccc(C3=C(C(=O)[O-])N4C(=O)[C@H]([C@@H](C)O)[C@H]4C3)cc2)c1 | 9.2 | 19.7 | 2.6 | 3.7 | 0.08 | 10.6 | 11.3 | 4.3 | – | –
2 | 0.13 | – | – | – | – | – | – | – | – | C[C@@H](O)[C@H]1C(=O)N2C(C(=O)O)=C(c3ccc(CN4CCOCC4)cc3)C[C@H]12 | – | 8 | – | 1.4 | 0.03 | 8.6 | 5.3 | 3.5 | 10.6 | 0.6
3 | 0.05 | – | – | – | – | – | – | – | – | C[C@@H](O)[C@H]1C(=O)N2C(C(=O)[O-])=C(c3ccc(C[n+]4cccc(CSCCC#N)c4)cc3)C[C@H]12 | 7 | 14.9 | 1 | 4.6 | 0.08 | 8 | 8.6 | 8 | – | –
4 | – | – | – | – | – | – | – | – | – | CO[C@@]1(NC(=O)Cc2cccs2)C(=O)N2C(C(=O)O)=C(COC(N)=O)CS[C@@H]21 [CEFOXITIN] | 0.6 | 0.3 | 0.03 | 0.04 | – | 0.06 | 0.03 | 0.1 | – | –
5 | 0.06 | – | – | – | – | – | – | – | – | Cc1cc[n+](Cc2ccc(C3=C(C(=O)[O-])N4C(=O)[C@H]([C@@H](C)O)[C@H]4C3)cc2)cc1 | 12.1 | 22.6 | 1.1 | 2.8 | 0.1 | 14.9 | 9.2 | 4.6 | – | –
6 | 0.04 | – | – | – | – | – | – | – | – | C[C@@H](O)[C@H]1C(=O)N2C(C(=O)[O-])=C(c3ccc(C[n+]4ccc(CN)cc4)cc3)C[C@H]12 | 4.3 | 6.1 | 0.5 | 0.8 | 0.05 | 7 | 2.6 | 1.7 | – | –
7 | 1 | 1.9 µg/mL (≈ 6.98 µM) | 0.88 µg/mL (≈ 3.23 µM) | 0.93 µg/mL (≈ 3.42 µM) | 1.79 µg/mL (≈ 6.57 µM) | 0.67 µg/mL (≈ 2.46 µM) | 3.6 µg/mL (≈ 13.2 µM) | 0.03 µg/mL (≈ 0.11 µM) | 0.37 µg/mL (≈ 1.36 µM) | C[C@@H](O)[C@H]1C(=O)N2C(C(=O)O)=C(SCCN)C[C@H]12 [THIENAMYCIN] | – | – | – | – | – | – | – | – | – | –
8 | 0.05 | – | – | – | – | – | – | – | – | C[C@@H](O)[C@H]1C(=O)N2C(C(=O)[O-])=C(c3ccc(C[n+]4cccc(C(=O)N(C)C)c4)cc3)C[C@H]12 | 4.6 | 4 | 0.3 | 1.1 | 0.04 | 5.7 | 3.5 | 2.3 | – | –
9 | 0.85 | – | – | – | – | – | – | – | – | C[C@@H](O)[C@H]1C(=O)N2C(C(=O)O)=C(SCCNC=N)C[C@H]12.O [IMIPENEM] | 1.6 | 1.8 | 1.8 | 1.5 | 4 | 1.5 | 1.8 | 1.6 | – | –
10 | 0.06 | – | – | – | – | – | – | – | – | C[C@@H](O)[C@H]1C(=O)N2C(C(=O)[O-])=C(c3ccc(C[n+]4ccc(CCS(=O)(=O)[O-])cc4)cc3)C[C@H]12.[K+] | 17.1 | 10.6 | 0.4 | 1.1 | 0.04 | 4.3 | 7 | 5.7 | – | –
11 | 0.05 | – | – | – | – | – | – | – | – | CSCc1ccc[n+](Cc2ccc(C3=C(C(=O)[O-])N4C(=O)[C@H]([C@@H](C)O)[C@H]4C3)cc2)c1 | 6.5 | 29.9 | 1.9 | 3.7 | 0.08 | 19.7 | 10.6 | 6.1 | – | –
12 | 0.06 | – | – | – | – | – | – | – | – | C[C@@H](O)[C@H]1C(=O)N2C(C(=O)[O-])=C(c3ccc(C[n+]4ccc(CS(=O)(=O)[O-])cc4)cc3)C[C@H]12.[K+] | 9.8 | 9.8 | 0.5 | 1.6 | 0.04 | 3.5 | 9.2 | 6.5 | – | –
13 | – | – | – | – | – | – | – | – | – | C[C@@H](O)[C@H]1C(=O)N2C(C(=O)[O-])=C(c3ccc(C[n+]4cccc(C(=O)[O-])c4)cc3)C[C@H]12.[K+] | 27.9 | 27.9 | 0.6 | 2 | 0.08 | 5.3 | 12.1 | 6.1 | – | –
